Measured values from publication PMC3892769 (Journal of medicinal chemistry, 2008).

Tests used:
human FPGS = settings: at concentrations up to 1045 µM; cited from earlier work
human TS = human TS (Homo sapiens, UniProt P04818); experiment: Inhibition of human TS; assay type: biochemical
E. coli TS = E. coli TS (Escherichia coli, UniProt P0A884); experiment: Inhibition of E. coli TS; assay type: biochemical
T. gondii TS = target: T1, T. gondii TS (Toxoplasma gondii, UniProt Q07422); experiment: biochemical
T1 sequence (Q07422 1-610): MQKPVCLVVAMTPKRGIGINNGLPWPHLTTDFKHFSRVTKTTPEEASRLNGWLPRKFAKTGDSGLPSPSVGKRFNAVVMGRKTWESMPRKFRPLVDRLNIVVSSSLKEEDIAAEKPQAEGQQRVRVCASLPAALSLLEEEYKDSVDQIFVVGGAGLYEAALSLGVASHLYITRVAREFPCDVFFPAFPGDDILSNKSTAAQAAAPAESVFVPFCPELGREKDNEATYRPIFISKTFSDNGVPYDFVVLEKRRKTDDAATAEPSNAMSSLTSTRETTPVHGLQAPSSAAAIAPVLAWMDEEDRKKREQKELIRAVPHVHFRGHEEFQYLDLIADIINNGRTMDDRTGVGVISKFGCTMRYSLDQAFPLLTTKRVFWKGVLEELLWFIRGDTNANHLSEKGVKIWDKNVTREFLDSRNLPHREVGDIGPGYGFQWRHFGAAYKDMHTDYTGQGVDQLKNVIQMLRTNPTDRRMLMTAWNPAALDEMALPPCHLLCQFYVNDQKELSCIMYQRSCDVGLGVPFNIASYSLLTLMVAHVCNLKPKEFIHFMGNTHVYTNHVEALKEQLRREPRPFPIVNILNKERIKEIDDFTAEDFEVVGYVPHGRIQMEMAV

human DHFR = target: T2, human DHFR (Homo sapiens, UniProt P00374); experiment: Inhibition of human DHFR; assay type: biochemical
T2 sequence (P00374 1-187): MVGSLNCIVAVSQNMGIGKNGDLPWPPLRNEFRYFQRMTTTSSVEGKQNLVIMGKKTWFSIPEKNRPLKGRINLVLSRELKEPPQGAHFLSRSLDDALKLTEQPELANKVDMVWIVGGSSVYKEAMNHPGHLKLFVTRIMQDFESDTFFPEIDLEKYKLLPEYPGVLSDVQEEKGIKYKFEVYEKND

E. coli DHFR = E. coli DHFR (Escherichia coli, UniProt P0ABQ4); experiment: Inhibition of E. coli DHFR; assay type: biochemical; settings: read-out: % inhibition of E. coli DHFR at the stated concentration
T. gondii DHFR = target: T3, T. gondii DHFR (Toxoplasma gondii, UniProt Q07422); experiment: biochemical
T3 sequence (Q07422 1-610): T1 sequence (Q07422 1-610)

E. coli TS, sequence (P0A884 whole entry): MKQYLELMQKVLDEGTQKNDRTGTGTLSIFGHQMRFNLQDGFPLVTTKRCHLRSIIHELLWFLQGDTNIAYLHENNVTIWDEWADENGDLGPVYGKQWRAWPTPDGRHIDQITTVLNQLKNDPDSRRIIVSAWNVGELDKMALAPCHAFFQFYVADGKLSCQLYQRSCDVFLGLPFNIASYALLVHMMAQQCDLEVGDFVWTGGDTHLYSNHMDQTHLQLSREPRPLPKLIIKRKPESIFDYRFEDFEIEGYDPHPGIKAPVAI
E. coli DHFR, sequence (P0ABQ4 whole entry): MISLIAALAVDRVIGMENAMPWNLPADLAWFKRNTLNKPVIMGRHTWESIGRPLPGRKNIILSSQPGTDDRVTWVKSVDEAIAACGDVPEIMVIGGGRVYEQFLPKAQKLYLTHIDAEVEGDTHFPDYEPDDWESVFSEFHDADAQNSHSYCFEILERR
human TS, sequence (P04818 whole entry): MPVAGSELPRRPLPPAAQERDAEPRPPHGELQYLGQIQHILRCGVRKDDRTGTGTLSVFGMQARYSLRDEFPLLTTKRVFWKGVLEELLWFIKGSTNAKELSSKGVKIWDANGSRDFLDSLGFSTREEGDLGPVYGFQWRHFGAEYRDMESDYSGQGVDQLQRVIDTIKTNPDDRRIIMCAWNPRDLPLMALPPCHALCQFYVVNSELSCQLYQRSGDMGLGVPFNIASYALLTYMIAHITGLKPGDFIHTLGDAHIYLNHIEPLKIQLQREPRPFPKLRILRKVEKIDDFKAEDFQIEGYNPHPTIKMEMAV

| SMILES | Substrate for human FPGS (human FPGS) | IC50 (human TS) [µM] | IC50 (E. coli TS) [µM] | inhibition at 23 µM (E. coli TS; read-out: % inhibition of E. coli TS at the stated concentration) [%] | IC50 (T. gondii TS) [µM] | inhibition at 23 µM (T. gondii TS; read-out: % inhibition of T. gondii TS at the stated concentration) [%] | IC50 (human DHFR) [µM] | inhibition at 28 µM (E. coli DHFR) [%] | IC50 (T. gondii DHFR) [µM] |
| --- | --- | --- | --- | --- | --- | --- | --- | --- | --- |
| Cc1[nH]c2nc(N)[nH]c(=O)c2c1Sc1ccc(C(=O)N[C@@H](CCC(=O)O)C(=O)O)cc1 [Compound 1, N-{4-[(2-amino-6-methyl-4-oxo-4,7-dihydro-3H-pyrrolo[2,3-d]pyrimidin-5-yl)thio]benzoyl}-L-glutamic acid] | not a substrate |  |  |  |  |  |  |  |  |
| COc1ccc(OC)c(Sc2c(C)sc3nc(N)[nH]c(=O)c23)c1 [Compound 8, 2-Amino-5-[(2,5-dimethoxyphenyl)sulfanyl]-6-methylthieno[2,3-d]pyrimidin-4(3H)-one] |  | 4.6 | > 23 | 36 | > 23 | 0 | 22 | 0 | 0.056 |
